Residues, ends and D or L forms follow the SMILES beside them. *: point of attachment. Cbz = O=C(OCc1ccccc1)*
What was measured:
[1] = test system: MKN28 cells; test: Zebrafish xenotransplantation migration assay, MKN28; type: in vivo; conditions: MKN28-injected embryos, immersion in 1 μM at 1 dpi, read at 3 dpi
Description: The Tg (fli1: EGFP) zebrafish transgenic strain was purchased from ZIRC (Oregon, USA). […] At two-day post-fertilization, the embryos were dechorionated and subsequently anesthetized with tricaine (0.04 mg/ml). MKN28 or MKN45 cells were labeled with either CFSE or CM-DiI. Two hundred labeled cells (4.6 nl) were injected into the yolk of two-day old embryo using a Nanoject II Auto-Nanoliter Injector (Drummond Science, Broomall, Pa., USA). Later, individual recipients were examined for fluorescent cells 1 and 3 day-post injection by a fluorescence microscopy (Leica).
Next, to evaluate migration behavior using a zebrafish xenotransplantation assay, an efficient in vivo system that utilizes a small number of cells (100 to 200 cells) to accurately monitor cell migratory activity within a couple of days. Cells (pLKO vs. shPHF8) were labeled with carboxyfluorescein succinimidyl ester (CFSE), an amine-reactive green fluorescent dye, and injected into zebrafish embryos. Migration activity was monitored at 1-day postinjection (1 dpi) and 3 dpi by fluorescence microscopy.

[2] = test system: MKN45 cells; test: Zebrafish xenotransplantation migration assay, MKN45; type: in vivo; conditions: MKN45-injected embryos, immersion in 1 μM at 1 dpi, read at 3 dpi
Description: The Tg (fli1: EGFP) zebrafish transgenic strain was purchased from ZIRC (Oregon, USA). The zebrafish embryos, larvae, and adult fish were maintained in the Taiwan Zebrafish Core Facility @ NHRI. At two-day post-fertilization, the embryos were dechorionated and subsequently anesthetized with tricaine (0.04 mg/ml). MKN28 or MKN45 cells were labeled with either CFSE or CM-DiI. Two hundred labeled cells (4.6 nl) were injected into the yolk of two-day old embryo using a Nanoject II Auto-Nanoliter Injector (Drummond Science, Broomall, Pa., USA). Later, individual recipients were examined for fluorescent cells 1 and 3 day-post injection by a fluorescence microscopy (Leica). […]
Next, to evaluate migration behavior using a zebrafish xenotransplantation assay, an efficient in vivo system that utilizes a small number of cells (100 to 200 cells) to accurately monitor cell migratory activity within a couple of days. […] Migration activity was monitored at 1-day postinjection (1 dpi) and 3 dpi by fluorescence microscopy.
Next, to corroborate this finding using a zebrafish xeno-transplantation model. Cells labeled with Vybrant CM-DiI (CM-Dil) (red fluorescence dye) were injected into the embryos of Tg (fli1: EGFP) (fish with green fluorescence in blood vessels), followed by immersion in solutions containing 1 μM m Midostaurin or Bosutinib (a sublethal dose) at 1 dpi. […]

[3] = test system: PTEN; test: PTEN protein level by Western blotting in MKN45; type: cell-based, human; conditions: MG132-treated pLKO MKN45 cells
Description: FIG. 16. Pharmacological inhibition of PHF8-PKCα-Src-PTEN blocks GC progression in vitro and in vivo. […] Data form FIGS. 16B and 16D are presented as the average of 3 replicates ±SD. *p<0.05, **p<0.01 (two-tailed Student's t test). Zebrafish xenotransplantation assays using Mido or Bosu. Fluorescence microscopic analysis was conducted at 1 dpi and 3 dpi. […] Cyan, blood vessel. Scale bar, 100 μm. […] Total number of embryos used in vehicle, Mido, Bosu is shown in the bracket. Data were obtained from 3 independent studies. *p<0.05 (two-tailed Student's t test).
(§1) For immunoblotting assay, PBS-washed cells collected by scraping were directly lysed in RIPA buffer supplemented with protease inhibitor (Santa Cruz) and PhosSTOP (Sigma). Appropriate amounts of protein were separated on SDS-PAGE and then electrotransferred to PVDF membrane (PALL, Protein Washington, N.Y., USA). After the transfer, each membrane was incubated with appropriate primary antibody overnight at 4° C. and then probed with secondary antibodies conjugated with fluorescence. Odyssey Infrared Imaging System (LI-COR Biosciences, Lincoln, Nebr., USA) was utilized to detect the level of fluorescence. For immunoprecipitation assay, cell pellets were lysed in lysis buffer [50 mM Tris-HCl (pH 7.4), 150 mM NaCl, 0.5% NP40)] containing protease inhibitor (Santa Cruz). […]

[4] = test system: PTEN; test: PTEN protein level by Western blotting in MKN28; type: cell-based, human; conditions: MG132-treated pLKO MKN28 cells
Excerpt: FIG. 15. Pharmacological inhibition of PHF8-PKCα-Src-PTEN blocks GC progression in vitro and in vivo. […] Data from FIGS. 15B and 15D are presented as the average of three replicates ±SD **P<0.01 (two-tailed Student's t test). Zebrafish xeno-transplantation assays using Mido or Bosu. […] Cyan, blood vessel. […] Total number of embryos used in vehicle, Mido, and Bosu is shown in the bracket. Data were obtained from three independent studies. **P<0.01 (two-tailed Student's t test).
as §1

For COc1cc(Nc2c(C#N)cnc3cc(OCCCN4CCN(C)CC4)c(OC)cc23)c(Cl)cc1Cl [Bosutinib], which “embryos with migration behavior (dissemination and invasion)” value [1] is on record?
Its value is 11.95%.

And the “embryos with migration behavior (metastatic activity)” value [2]?
Its value is 18.08%.

How did the “embryos with migration behavior (dissemination and invasion)” value [1] turn out when CO[C@@H]1[C@H](N(C)C(=O)c2ccccc2)C[C@H]2O[C@]1(C)n1c3ccccc3c3c4c(c5c6ccccc6n2c5c31)C(=O)NC4 [Midostaurin] was run?
The value was 11%.

And the “embryos with migration behavior (metastatic activity)” value [2]?
The value was 13.88%.

How did the “PTEN protein level with MG132 treatment” value [3] turn out when CC(C)C[C@@H](C=O)NC(=O)[C@H](CC(C)C)NC(=O)[C@H](CC(C)C)NC(=O)OCc1ccccc1 [MG132] (Cbz-Leu-Leu-Leu-aldehyde) was run?
The value was “rescued”.

What about the “PTEN protein level with MG132 treatment” value [4] of the same molecule?
Its value is “rescued”.
